The assay concerns the target T1, Ubiquitin carboxyl-terminal hydrolase 30 (Homo sapiens, UniProt Q70CQ3).
T1 sequence (Q70CQ3 whole entry): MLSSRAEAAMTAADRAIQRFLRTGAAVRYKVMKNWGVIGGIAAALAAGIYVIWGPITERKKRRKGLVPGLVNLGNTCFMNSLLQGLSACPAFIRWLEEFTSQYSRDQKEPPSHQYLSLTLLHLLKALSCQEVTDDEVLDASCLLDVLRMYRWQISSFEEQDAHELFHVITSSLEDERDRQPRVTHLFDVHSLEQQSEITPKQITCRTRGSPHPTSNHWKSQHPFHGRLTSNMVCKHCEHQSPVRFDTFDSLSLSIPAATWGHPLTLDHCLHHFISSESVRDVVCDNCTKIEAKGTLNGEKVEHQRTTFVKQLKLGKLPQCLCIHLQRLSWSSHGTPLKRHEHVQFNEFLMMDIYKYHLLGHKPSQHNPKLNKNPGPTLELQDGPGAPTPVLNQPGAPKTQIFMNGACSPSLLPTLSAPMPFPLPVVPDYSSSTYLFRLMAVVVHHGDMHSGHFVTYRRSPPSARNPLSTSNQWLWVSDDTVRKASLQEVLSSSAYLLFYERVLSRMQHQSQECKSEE
The assay can be described thus: A typical 8-point dilution series would be 100, 30, 10, 3, 1, 0.3, 0.1, 0.03 μM final. Reactions were performed in duplicate in black 384 well plates (small volume, Greiner 784076) in a final reaction volume of 21 μl. Either 1 μl of 50% DMSO or diluted compound was added to the plate. USP30 was diluted in reaction buffer (40 mM Tris, pH 7.5, 0.005% Tween 20, 0.5 mg/ml BSA, 5 mM beta-mercaptoethanol) to the equivalent of 0.05 μl/well and 10 μl of diluted USP30 was added to the compound. Enzyme and compound were incubated for 30 min at room temp. Reactions were initiated by the addition of 50 nM of TAMRA labelled peptide linked to ubiquitin via an iso-peptide bond as fluorescence polarisation substrate. Reactions were read immediately after addition of substrate and following a 2 h incubation at room temperature. Readings were performed on a Pherastar Plus (BMG Labtech). λ Excitation 540 nm; λ Emission 590 nm. (Polarisation of emitted light reports the rotation of a fluorescent probe.)

pIC50: −log10 of the molar value.

As for `N#CN1CCCC1c1noc(-c2cccc(-c3cccc([N+](=O)[O-])c3)c2)n1` (centres undefined), the negative logarithm of the IC50 (pIC50) (in general, −log10 of the IC50, conventionally taken in molar units) was above 7.00.

On to `N#Cc1ccc(-c2cccc(-c3nc(C4CCCN4C#N)no3)c2)s1` (centres undefined), for which the pIC50 was above 7.00.

Regarding `N#Cc1cccc(-c2cc(-c3nc([C@@H]4CCCN4C#N)no3)ccn2)c1`, the pIC50 is above 7.00.

`N#Cc1cccc(-c2cccc(-c3nc(C4CCCN4C#N)no3)c2)c1F` (centres undefined): the negative-log IC50 (pIC50) was above 7.00.

Values taken from ChEMBL document CHEMBL5729144, “1-cyano-pyrrolidine derivatives as DUB inhibitors” (2022).
